From PubChem BioAssay AID2060492 (Molecular Pharmacology Branch, DTP, NCI, 2025)
Values belong to the compound of their own block, whether it stands above or below them.

Test system: 695427-040-R-J1-PDC complex spheroids, viability percent T/C
Assay: Anticancer human tumor 695427-040-R-J1-PDC patient-derived colon adenocarcinoma cell line growth inhibition [GQUAD]
Details: for IC50: curve of first compound; for viability, T/C: stronger effect = lower value
Method in brief: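 Tumor cells were grown as complex spheroids with HUVEC endothelial cells and mesenchymal stem cells as stroma. G-quadruplex stabilizers were combined with targeted agents over half-log dilutions from near the clinical Cmax, or from 10 microM.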

[1] = second compound 0.0316 µM, first compound 0.0316 µM
[2] = second compound 0.0316 µM, first compound 0.1 µM
[3] = second compound 0.0316 µM, first compound 0.316 µM
[4] = second compound 0.0316 µM, first compound 1 µM
[5] = second compound 0.0316 µM, first compound 3.16 µM
[6] = second compound 0.0316 µM, first compound 10 µM
[7] = second compound 0.1 µM, first compound 0.0316 µM
[8] = second compound 0.1 µM, first compound 0.1 µM
[9] = second compound 0.1 µM, first compound 0.316 µM
[10] = second compound 0.1 µM, first compound 1 µM
[11] = second compound 0.1 µM, first compound 3.16 µM
[12] = second compound 0.1 µM, first compound 10 µM
[13] = second compound 0.316 µM, first compound 0.0316 µM
[14] = second compound 0.316 µM, first compound 0.1 µM
[15] = second compound 0.316 µM, first compound 0.316 µM
[16] = second compound 0.316 µM, first compound 1 µM
[17] = second compound 0.316 µM, first compound 3.16 µM
[18] = second compound 0.316 µM, first compound 10 µM
[19] = second compound 1 µM, first compound 0.0316 µM
[20] = second compound 1 µM, first compound 0.1 µM
[21] = second compound 1 µM, first compound 0.316 µM
[22] = second compound 1 µM, first compound 1 µM
[23] = second compound 1 µM, first compound 3.16 µM
[24] = second compound 1 µM, first compound 10 µM
[25] = second compound 3.16 µM, first compound 0.0316 µM
[26] = second compound 3.16 µM, first compound 0.1 µM
[27] = second compound 3.16 µM, first compound 0.316 µM
[28] = second compound 3.16 µM, first compound 1 µM
[29] = second compound 3.16 µM, first compound 3.16 µM
[30] = second compound 3.16 µM, first compound 10 µM
[31] = second compound 10 µM, first compound 0.0316 µM
[32] = second compound 10 µM, first compound 0.1 µM
[33] = second compound 10 µM, first compound 0.316 µM
[34] = second compound 10 µM, first compound 1 µM
[35] = second compound 10 µM, first compound 3.16 µM
[36] = second compound 10 µM, first compound 10 µM
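Note: spheroids exposed to compounds for seven days before readout.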

Structure (SMILES): C=CCn1c(=O)c2cnc(Nc3ccc(N4CCN(C)CC4)cc3)nc2n1-c1cccc(C(C)(C)O)n1 + Cc1[nH]c2ccc(F)cc2c1-c1nc2c3cccnc3c3ncccc3c2[nH]1
IC50 (second compound 0.0316 µM): 9.44 µM
IC50 (second compound 0.1 µM): 6.67 µM
IC50 (second compound 0.316 µM): 6.48 µM
IC50 (second compound 1 µM): 5.42 µM
IC50 (second compound 3.16 µM): 4.56 µM
IC50 (second compound 10 µM): 4.4 µM
viability, T/C [1]: 102%
viability, T/C [2]: 104%
viability, T/C [3]: 94.3%
viability, T/C [4]: 108%
viability, T/C [5]: 105%
viability, T/C [6]: 47.1%
viability, T/C [7]: 114%
viability, T/C [8]: 99.8%
viability, T/C [9]: 103%
viability, T/C [10]: 113%
viability, T/C [11]: 99.3%
viability, T/C [12]: 23%
viability, T/C [13]: 105%
viability, T/C [14]: 94.1%
viability, T/C [15]: 95.6%
viability, T/C [16]: 97.2%
viability, T/C [17]: 95.6%
viability, T/C [18]: 22.4%
viability, T/C [19]: 81.6%
viability, T/C [20]: 88.2%
viability, T/C [21]: 93.1%
viability, T/C [22]: 89.3%
viability, T/C [23]: 79.8%
viability, T/C [24]: 16%
viability, T/C [25]: 72%
viability, T/C [26]: 72%
viability, T/C [27]: 70.3%
viability, T/C [28]: 64.8%
viability, T/C [29]: 70.7%
viability, T/C [30]: 7.06%
viability, T/C [31]: 75.4%
viability, T/C [32]: 76.8%
viability, T/C [33]: 71.5%
viability, T/C [34]: 71.5%
viability, T/C [35]: 67.8%
viability, T/C [36]: 6.01%

Structure (SMILES): CC(C)(O)C1CCC(Nc2ccc3ncc(-c4cccc(C(F)(F)F)c4)n3n2)CC1 (stereo not drawn) + Cc1[nH]c2ccc(F)cc2c1-c1nc2c3cccnc3c3ncccc3c2[nH]1
IC50 (second compound 0.0316 µM): > 10 µM
IC50 (second compound 0.1 µM): > 10 µM
IC50 (second compound 0.316 µM): > 10 µM
IC50 (second compound 1 µM): > 10 µM
IC50 (second compound 3.16 µM): > 10 µM
IC50 (second compound 10 µM): > 10 µM
viability, T/C [1]: 109%
viability, T/C [2]: 99.1%
viability, T/C [3]: 109%
viability, T/C [4]: 95.6%
viability, T/C [5]: 99.8%
viability, T/C [6]: 82.5%
viability, T/C [7]: 110%
viability, T/C [8]: 100%
viability, T/C [9]: 103%
viability, T/C [10]: 100%
viability, T/C [11]: 100%
viability, T/C [12]: 81.9%
viability, T/C [13]: 101%
viability, T/C [14]: 102%
viability, T/C [15]: 97.6%
viability, T/C [16]: 93.2%
viability, T/C [17]: 99.7%
viability, T/C [18]: 80.1%
viability, T/C [19]: 102%
viability, T/C [20]: 89.4%
viability, T/C [21]: 96.8%
viability, T/C [22]: 87.6%
viability, T/C [23]: 91.4%
viability, T/C [24]: 78%
viability, T/C [25]: 91.6%
viability, T/C [26]: 86.9%
viability, T/C [27]: 76.4%
viability, T/C [28]: 89.5%
viability, T/C [29]: 93.5%
viability, T/C [30]: 62.5%
viability, T/C [31]: 79%
viability, T/C [32]: 68.6%
viability, T/C [33]: 81.7%
viability, T/C [34]: 80.5%
viability, T/C [35]: 80%
viability, T/C [36]: 67.3%

Structure (SMILES): COc1ncnc(C2CC2)c1-c1ncc2cnn(Cc3ccc(-c4nc(C(F)(F)F)cn4C(C)C)cc3)c2n1 + Cc1[nH]c2ccc(F)cc2c1-c1nc2c3cccnc3c3ncccc3c2[nH]1
IC50 (second compound 0.0316 µM): > 10 µM
IC50 (second compound 0.1 µM): > 10 µM
IC50 (second compound 0.316 µM): > 10 µM
IC50 (second compound 1 µM): > 10 µM
IC50 (second compound 3.16 µM): > 10 µM
IC50 (second compound 10 µM): > 10 µM
viability, T/C [1]: 98%
viability, T/C [2]: 96.7%
viability, T/C [3]: 92.9%
viability, T/C [4]: 106%
viability, T/C [5]: 112%
viability, T/C [6]: 70%
viability, T/C [7]: 107%
viability, T/C [8]: 93.9%
viability, T/C [9]: 98.5%
viability, T/C [10]: 98.4%
viability, T/C [11]: 100%
viability, T/C [12]: 71%
viability, T/C [13]: 99.5%
viability, T/C [14]: 91.9%
viability, T/C [15]: 94.6%
viability, T/C [16]: 106%
viability, T/C [17]: 105%
viability, T/C [18]: 65.6%
viability, T/C [19]: 91%
viability, T/C [20]: 86.3%
viability, T/C [21]: 101%
viability, T/C [22]: 96.3%
viability, T/C [23]: 94.1%
viability, T/C [24]: 67.8%
viability, T/C [25]: 76.5%
viability, T/C [26]: 77.5%
viability, T/C [27]: 73.3%
viability, T/C [28]: 80.1%
viability, T/C [29]: 98.4%
viability, T/C [30]: 66.5%
viability, T/C [31]: 82.2%
viability, T/C [32]: 73.5%
viability, T/C [33]: 83.1%
viability, T/C [34]: 81.8%
viability, T/C [35]: 95.4%
viability, T/C [36]: 73.8%

IC50 (second compound 0.0316 µM): > 10 µM
IC50 (second compound 0.1 µM): > 10 µM
IC50 (second compound 0.316 µM): > 10 µM
IC50 (second compound 1 µM): 7.26 µM
IC50 (second compound 3.16 µM): 2.61 µM
IC50 (second compound 10 µM): < 0.0316 µM
Structure (SMILES): CC(C)n1c(=O)n(C)c2cnc3cc(F)c(-c4ccc(OCCCN5CCCCC5)nc4)cc3c21 + Cc1cnc(CNC(=O)c2c(=O)c3ccc(N4CCCN(C)CC4)nc3n3c2sc2ccccc23)cn1
viability, T/C [1]: 80.7%
viability, T/C [2]: 80.8%
viability, T/C [3]: 88%
viability, T/C [4]: 80.9%
viability, T/C [5]: 84.6%
viability, T/C [6]: 56%
viability, T/C [7]: 87.1%
viability, T/C [8]: 76.8%
viability, T/C [9]: 91.7%
viability, T/C [10]: 66.3%
viability, T/C [11]: 84.6%
viability, T/C [12]: 51.5%
viability, T/C [13]: 89%
viability, T/C [14]: 49.6%
viability, T/C [15]: 75.8%
viability, T/C [16]: 71.6%
viability, T/C [17]: 85.4%
viability, T/C [18]: 56.3%
viability, T/C [19]: 90%
viability, T/C [20]: 64.4%
viability, T/C [21]: 69.9%
viability, T/C [22]: 68.6%
viability, T/C [23]: 73.5%
viability, T/C [24]: 41.1%
viability, T/C [25]: 51.5%
viability, T/C [26]: 47.4%
viability, T/C [27]: 57.8%
viability, T/C [28]: 54.6%
viability, T/C [29]: 49%
viability, T/C [30]: 20.4%
viability, T/C [31]: 43.5%
viability, T/C [32]: 40.3%
viability, T/C [33]: 45.8%
viability, T/C [34]: 42.6%
viability, T/C [35]: 43.1%
viability, T/C [36]: 0.95%
